We go through one compound from US20260263470A1, “A METHOD FOR THE TREATMENT OF CHRONIC HAND ECZEMA IN PATIENTS WITH MODERATE TO SEVERE CHRONIC HAND ECZEMA” (priority 2023, published 2026).

The term IC50 denotes the midpoint of a concentration-inhibition curve. A higher IC50 goes with lower potency. Usually half-life stands for how long it takes for the measured level to halve. For orientation: fraction unbound means free concentration divided by total concentration. Low readings indicate extensive binding, high ones weak binding.

In data set [1] the test system is IL-4 release in whole-blood. Kind of data set: in vitro IL-4 release assay in whole-blood of healthy volunteers. Particulars: Homo sapiens; whole-blood of healthy volunteers (n=4). It is filed as cell-based. An excerpt:
(§1) Data are reported as geometric means.

Data set [2] concerns adult patients with moderate-to-severe CHE. As to the kind of experiment: DELTA 1 and DELTA 2 together (pooled analyses and statements made for both trials). The format is in vivo, human. As for the experimental part: In a pooled analysis of both trials, changes in EQ-5D scores from baseline to week 16 were assessed in all patients and in a post-hoc analysis of patients achieving clinical responses (defined as Hand Eczema Area and Severity Index (HECSI)-50, -75, and -90, Investigator's Global Assessment for CHE treatment success [IGA-CHE TS; clear or almost clear skin with a ≥2-step improvement from baseline] and ≥4-point improvements in Hand Eczema Symptom Diary (HESD) itch and pain scores.
DELTA 1 and DELTA 2 were phase 3 trials of identical design. […] Data were pooled from both trials and changes in DLQI scores were assessed from baseline to week 16 in all patients and in a post-hoc analysis of patients achieving clinical responses, defined as Hand Eczema Area and Severity Index (HECSI)-50, -75, and -90, Investigator's Global Assessment for CHE treatment success (IGA-CHE TS; a score of 0/1 with a ≥2-step improvement from baseline), and ≥4-point improvements in Hand Eczema Symptom Diary (HESD) itch and pain scores.
The Hand Eczema Symptom eDiary (HESD) captured patient-reported severity of itch and pain over the past 24 hours on an 11-point numeric rating scale (0=no itch/pain to 10=severe itch/pain). Changes in itch and pain from baseline were assessed daily during Week (W)1 and weekly from W1-16.

Data set [3] is described as follows: Half-life following repeated topical administration of delgocitinib cream. To be noted: human, plasma, 20 mg/g. The format is in vivo.
Data set [4] can be described thus: Systemic exposure in DELTA 2: plasma concentrations of delgocitinib after cream application (LC/MS). It is filed as in vivo, human. To be noted: for plasma concentration of delgocitinib (geometric mean): 2-6 hours after application of cream 20 mg/g twice daily.
Description: as §1

A short description of data set [5]: Phase 1 trial, single oral doses of delgocitinib in healthy volunteers. It is filed as in vivo. Particulars: human, plasma, single oral dose 1.5 mg, read-out: peak systemic exposure (geometric mean Cmax).
Description: as §1

The next data set is described as follows: Plasma protein binding. The format is in vitro ADME.

Values after ≈ are worked out from the molar mass of the structure shown.

In data set [1], `C[C@H]1CN(C(=O)CC#N)[C@]12CCN(c1ncnc3[nH]ccc13)C2` [delgocitinib, Delgocitinib] registered an IC50 of 0.0172 µg/mL (≈ 0.0554 µM). The “rates of all AEs, AEs related to study drug and AEs leading to discontinuation of study drug, versus cream vehicle” value in data set [2] (baseline to trial completion) is “numerically higher with cream vehicle compared to delgocitinib”. Moreover, the “onset of itch and pain reduction” value in data set [2] (pooled) was “Early onset of itch and pain reduction was observed within W1”. In data set [3], this compound had a half-life of 20.3 h. Besides, the “decrease of detectable absorption by week 16” value in data set [4] (DELTA 2) was found to be 48%. The “plasma concentration of delgocitinib (geometric mean)” value in data set [4] (DELTA 2, Week 1) was 0.21 ng/mL; in data set [4] (DELTA 2, Week 4), 0.20 ng/mL; in data set [4] (DELTA 2, Week 16), 0.12 ng/mL. Further, the “mean plasma concentration in the remaining subjects with detectable absorption” value in data set [4] (DELTA 2, week 16) came to 0.11 ng/mL. The steady state reached in data set [4] (given as Delta 2) is no more than 8 days. Besides, the AUC(0-t) in data set [4] (human, plasma, topical, 20 mg/g, given as Delta 2, day 8, read-out: area under the concentration-curve from time 0 to 12 hours (AUC0-12), geometric mean) is 3.7 ng·h/mL. In addition, the Cmax stood at 0.46 ng/mL in data set [4] (human, plasma, topical, 20 mg/g, given as Delta 2, day 8, read-out: geometric mean maximum plasma concentration (Cmax)) and 7.2 ng/mL in data set [5]. This compound also displayed a fraction unbound in the data set “Plasma protein binding” of 0.71 to 0.78.
